Test results reported in patent publication US20150307841A1, “Composition for Promoting Differentiation and Proliferation of Neural Stem Cell and Neural Precursor Cell” (priority 2014, published 2015).
Entries after “also recorded” stand apart in the source; their conditions may differ.

Tests used:
[1] = test system: hippocampal neural precursor cells (NPCs); assay: NeuN, GFAP, TUJ1, MAP2 immunostaining of cultured embryonic neural precursor cells (differentiation, neurite outgrowth); type: cell-based, rat
Excerpt: (§1) Pregnant Sprague-Dawley rats purchased from Orient Animal Breeding Center (a branch of Charles River Laboratories, Gyeonggi-do, Korea) were sacrificed by exposing to CO2 inhalation. Hippocampal neural precursor cells (NPCs) were isolated from the brain of the E16 rat embryo according to the method of Shin M H et al. (Exp Mol Med, 2002) with slight modifications.
(§2) Briefly, hippocampi were aseptically dissected from the embryonic forebrain, mechanically dissociated in Ca^2+/Mg^2+-free Hank's balanced salt solution (HBSS) and then plated at 7×10^5 cells/cm^2 on 60-mm dishes pre-coated with 15 μg/mL poly-L-ornithine and 1 μg/mL fibronectin. The neural precursor cells were cultured in serum-free N2 media supplemented with 10 ng/mL bFGF in 5% CO2 for 3 days and then detached using 0.05% trypsin-ethylenediaminetetraacetic acid (EDTA). The neural precursor cells were plated on 12-mm cover glasses (Bellco Co., Vineland, N.J., USA) and cultured one more day in N2 media supplemented with 10 ng/mL bFGF in 5% CO2 (primary culturing).
Following the primary culturing in (1), in order to confirm the differentiation of the neural precursor cells and the proliferation of the differentiated neurons, the neural precursor cells were cultured on 12-mm cover glasses (Bellco Co., Vineland, N.J., USA) for 4 days in bFGF-free N2 media with 2×10^4 cells/well. For double immunostaining of GFAP and NeuN, and TUJ1 and MAP2, the cells were cultured for only 2 days.
The immunostaining was carried out as previously described (Donaldson J G (2001) Immunofluorescence staining Curr Protoc Cell Biol Chapter 4: Unit 4.3) with minor modifications.
On the next day, after adding a vehicle (dimethyl sulfoxide) or soyasaponin I at different concentrations of 0.5, 1 or 2 μM to the media, the cells were fixed with 4% PFA in PBS at 4° C. for 4-15 minutes. The cells were permeabilized with 0.5% Triton X-100 for 5 minutes and blocked with 5% normal serum (a mixture of normal donkey, goat and horse sera) for 1 hour at room temperature.
The cells were incubated with anti-GFAP (1:1,000, Chemicon), anti-NeuN (1:500, Chemicon), anti-MAP2 (1:2,500, Sigma) and anti-TUJ1 (1:2,000, Sigma) primary antibodies for 1 hour at room temperature. The secondary antibodies and scanning method used were the same as in (2).
Cell counting was performed as reported by Park H J et al. (Phytother Res, 2008). The average length per neurite of the MAP2-positive cells with longer neurites more than double the cell body width was counted from 10-12 confocal laser microscopic fields that were randomly chosen per the cultured cover glass. Primary branches, which directly outgrow from the cell body, were counted when the length of the primary branches was 2 times or longer than the cell body width. All secondary and tertiary branches that come from the primary and secondary branches, respectively, were also counted. The numbers of the branches were also counted from 10-12 confocal laser microscopic fields that were randomly chosen per each cover glass on which the neuronal cells were grown and immunostained with MAP2 antibodies. Analysis of the neurite length and the numbers of the branches was performed with LSM Image Examiner ver. 2.80 (Carl Zeiss).

[2] = test system: hippocampal neural precursor cells (NPCs); assay: Immunoblotting assay of VGluT1, ChAT, GAD65/67 in cultured hippocampal neural precursor cells; type: cell-based, rat
Excerpt: as §1, §2
Following the primary culturing in (1), the cultured hippocampal neural precursor cells were lysed in 80 μL of a cold RIPA buffer containing a protease inhibitor cocktail for immunoblotting assay of VGluT1, ChAT and GAD65/67. After centrifugation for 10 minutes at 13,000×g, the supernatants were divided into Eppendorf tubes and stored at −80° C.
Protein quantification assay was performed using a Bradford protein assay kit (Bio-Rad, Hercules, Calif., USA). […]
The number of the VGluT1- and GAD-positive cells in the brain slice samples 1 week and 4 weeks after the administration of soyasaponin I was presented per microscopic field (×400-VGluT1, ×800-GAD67) and the number of the ChAT-positive cells was presented per each hippocampal region (10-12 confocal laser microscopic fields). […] Western blotted membranes were analyzed using the multi-gauge, bio-imaging program on LAS-4000 Mini (Fujifilm Life Science, Stamford, Conn., USA). […]

[3] = test system: GAD67-, VGluT1-, ChAT-positive neurons and OX42 reactive microglia in the hippocampus; assay: Immunohistochemical analysis of GAD67, VGluT1, ChAT, OX42 in hippocampus (Experimental Example 1); type: in vivo, rat
Procedure: Immunostaining was carried out using antibodies against VGluT1 (diluted 1:500, Chemicon), ChAT (1:500, Chemicon), GFAP (1:1,000, Chemicon), tyrosine hydroxylase (TH, 1:500, Chemicon) and OX42 (CD11b/c, 1:250, Serotec) as primary antibodies instead of the anti-BrdU antibodies used in (4). The other process was the same as in (4), except that incubation was performed at 37° C. for 30 minutes in 2 N HCl.
In the immunohistochemical analysis, the number of the cells immnunostained against each antibody was counted from 5 or 6 hippocampal coronal sections. For each staining analysis, every fifth cryosections of the hippocampal region of brain tissues (AP: bregma −4.5 to −4.3 mm) were taken for immunostaining. The number of the immnunostained cells was represented as an average of number of cells in the hippocampal region of one brain slice.
The number of the VGluT1- and GAD-positive cells in the brain slice samples 1 week and 4 weeks after the administration of soyasaponin I was presented per microscopic field (×400-VGluT1, ×800-GAD67) and the number of the ChAT-positive cells was presented per each hippocampal region (10-12 confocal laser microscopic fields). 5-11 animals were used per group. Western blotted membranes were analyzed using the multi-gauge, bio-imaging program on LAS-4000 Mini (Fujifilm Life Science, Stamford, Conn., USA). Densitometeric analysis of the expression ratios of VGluT1/β-actin, GAD65/67/β-actin and ChAT/β-actin was normalized to the vehicle group.

## C[C@@H]1O[C@@H](O[C@H]2[C@H](O[C@H]3[C@H](O[C@H]4CC[C@@]5(C)[C@@H](CC[C@]6(C)[C@@H]5CC=C5[C@@H]7CC(C)(C)C[C@@H](O)[C@]7(C)CC[C@]56C)[C@@]4(C)CO)O[C@H](C(=O)O)[C@@H](O)[C@@H]3O)O[C@H](CO)[C@H](O)[C@@H]2O)[C@H](O)[C@H](O)[C@H]1O [soyasaponin I]
[1]; 1 μM soyasaponin I for 4 days
  Neurite length (MAP2) increase compared to the normal group: 2.2 fold
[1]; 0.5 and 1 μM, concentration-dependent
  Number of NeuN-expressing cells (differentiation into mature neurons): increased
[1]; hippocampal neural precursor cell cultures
  Astrocytes expressing glial fibrillary acidic protein (GFAP) in the cultures: hardly observed
[1]; soyasaponin I 0.5 μM group
  Increase in TUJ1-expressing cells compared to the normal group: about 4 fold
[1]; soyasaponin I 1 μM group
  Average neurite length: markedly increased
  Numbers of both primary and secondary branches: markedly increased
[2]; 0.5, 1, 2 μM test groups, normalized to β-actin and vehicle
  Expression level of ChAT protein compared to the normal group: 1.9 fold
[2]; treatment for 6 days
  Expression of GAD65/67 protein: increased relatively little
  Expression of VGluT1 protein: increased relatively little
[3]; 10 mg/kg oral
  Number of VGluT1-positive cells: 57.33±2.43 cells per microscopic field
[3]; 5, 10, 20 mg/kg oral
  Number of VGluT1-positive cells compared to the IBO group: increased up to the level of the normal group
[3]; DG and CA1 regions, 5, 10, 20 mg/kg
  OX42 (reactive microglia) intensity normalized to the normal group: decreased in a dose-dependent manner; also recorded: decreased again to the level of the normal model
